Changes are numbered by the printed parent chain. “Also recorded” adds a separate entry of the source. Each block holds one molecule with its values, some of them ahead of it.
Key:
MOLP-8 cells = assay: MOLP-8 MM xenograft in SCID mice; format: in vivo; conditions: for efficacy in MOLP8 tumors: lenalidomide 50 mg/kg, bortezomib 0.8 mg/kg, BMS-936564 10 mg/kg/dose
Description: In all the experiments, the mice were injected intraperitoneally on Days 0 and 7 with an IgG4 isotype control and a PBS vehicle control.

[1] = tested on: Bortezomib-resistant JJN-3R cells; assay: JJN-3R MM xenograft in SCID mice; format: in vivo; conditions: lenalidomide 50 mg/kg/dose IP, bortezomib 0.8 mg/kg/dose IV
parental JJN-3 cells = assay: JJN-3 MM xenograft in SCID mice; format: in vivo; conditions: bortezomib 0.8 mg/kg/dose IV, lenalidomide 50 mg/kg/dose IP
Source text: 5 million JJN-3 cells/mouse were implanted into SCID mice and the mice were randomized into groups of 8 when the tumor volume reached approximately 77 mm^3.

RPMI-8226 cells = assay: RPMI-8226 MM xenograft in SCID mice; format: in vivo
Description: The mice were randomized (n=8) when the tumor volume reached approximately 20 mm^3, dosed on Days 0, 3, 7, 10 and 14 with MDX-1338 (10 mg/kg/dose) alone or in combination with 50 mg/kg lenalidomide or in combination with 0.8 mg/kg bortezomib.

MM.1S cells = assay: MM.1S MM xenograft in SCID mice; format: in vivo
OPM-2 cells = assay: OPM-2 MM xenograft in SCID mice
Source text: OPM-2 cells (10 million) were implanted into SCID mice as described.

Ramos cells [2] = assay: Ramos cell proliferation, Cell-Titer-Glo; format: cell-based, human; conditions: 72 hours
Description: Ramos cells were suspended at 1×10^5 cells/mL in growth media, incubated with the relevant antibodies, including isotype controls, and other test agents and cultured for 72 hours at 37° C. Cell-Titer-Glo (Promega) was added to wells, mixed, and incubated at room temperature for 10 minutes. The plate was read on a GloMax Luminometer (Promega).

Ramos cells [3] = assay: Apoptosis of Ramos cells, Annexin V-FITC/PI, vs AMD3100; format: cell-based, human; conditions: 24 hours, antibody 10 μg/mL, AMD3100 6 μM
Description: Cells were stained with Annexin V-FITC and propidium iodide (A). The percent of cells positive for Annexin V only or both Annexin V and PI double positive was determined (B).
Cells were stained with Annexin V-FITC and propidium iodide (PI).

CXCR4 [4] = target: T1, CXCR4 (Homo sapiens, UniProt P61073); assay: Competition with FITC-labeled F9 for binding to CEM cells; conditions: 300 nM to 5 pM
Description: To determine the ability of a panel of anti-CXCR4 antibodies to compete for binding to CXCR4, competition studies were performed. […] The mixture of antibodies was then added to CEM cells and allowed to bind.

CXCR4 [5] = target: T1, CXCR4; assay: 125I-CXCL12 binding competition on CEM cells (first experiment); conditions: 100 pM 125I-CXCL12
Description: A comparison of anti-CXCR4 antibodies on blocking CXCL12 binding to CEM cells was performed by a standard radio-labeled ligand binding assay. The anti-CXCR4 antibodies were serially diluted 1:3 to yield a range of concentrations from 300 nM to 137 pM. […] An irrelevant antibody of the same isotype was used as a negative control.

CXCR4 [6] = target: T1, CXCR4; assay: CXCL12-induced calcium flux in CEM cells (Calcium 3 dye); format: cell-based; conditions: 50 nM CXCL12α
Source text: As a negative control, an irrelevant antibody of the same isotype was used.

CXCR4 [7] = target: T1, CXCR4; assay: CXCL12-induced migration of CEM cells (first experiment); format: cell-based; conditions: 5 nM CXCL12α
Description: The anti-CXCR4 antibodies were titrated in a 1:3 serial dilution series resulting in a concentration range from 100 nM to 1 pM and allowed to bind to labeled CEM cells at a density of 10 million cells per ml. As a negative control, an irrelevant antibody of the same isotype was used. Recombinant human CXCL12α (Peprotech) was added at 5 nM at 30 μl per well to the lower chamber of a 96 well Neuroprobe migration plate with 5.7 mm diameter filters per well. Each well contains […]. Labeled CEM cells with and without antibody were loaded onto the filters at a concentration of 0.5 million cells per well in a volume of 50 μl. The migration plate was incubated at 37° C. for 2.5 hours. […] The chemiluminescent signal was recorded on a Fusion instrument.

[8] = tested on: human umbilical vein endothelial cells (HuVEC); assay: HuVEC capillary tube formation; format: cell-based; conditions: HuVEC on MATRIGEL, 18 hours
Description: In this example, the ability of the anti-CXCR4 human antibodies to inhibit capillary tube formation by human umbilical vein endothelial cells (HuVEC) was examined […]® was diluted 1:1 with RPMI and plated onto the wells of a 96 well plate and allowed to polymerize for 30 minutes at 37° C. HuVEC (from Cambrex, cat. # CC-2519) at 80% confluence were trypsinized and resuspended at 1×10^6 cells per ml in RPMI with 0.5% FBS. Antibodies were well mixed with HuVEC at a final concentration of 3 mg/ml and allowed to incubate at room temperature for 30 minutes. An irrelevant antibody of the same isotype or media alone was used as a negative control. As a positive control of inhibition of tube formation, a mouse anti-human αvβ3 (CD51/CD61) antibody (R&D Systems, cat. # MAB3050) was used. HuVEC with or without antibodies were plated onto the […]®-coated wells and incubated at 37° C. for 18 hours.
The HuVEC incubated with media alone or with the isotype-matched control antibody formed capillary tubes resulting in the appearance of connected cells across the plate with 3-5 points of connection or branch points per cell. […] The cells appeared isolated and with few or no branch points.

Ramos tumor cells = assay: Ramos cell proliferation, 3H-thymidine incorporation; format: cell-based, human; conditions: 10^−3 to 300 nM; 72 hours
Description: In this example, the ability of the anti-CXCR4 human antibodies to inhibit proliferation of Ramos tumor cells (a human Burkitt's lymphoma cell line) in vitro was examined. […] The cells were incubated with antibody for 72 hours, with ^3H-thymidine being added for the final 24 hours of incubation to allow for monitoring of cell proliferation. Following the incubation, incorporation of ^3H-thymidine by the cells was measured by standard techniques. The results are shown in the graph of FIG. 11A.

T1 sequence (P61073 whole entry): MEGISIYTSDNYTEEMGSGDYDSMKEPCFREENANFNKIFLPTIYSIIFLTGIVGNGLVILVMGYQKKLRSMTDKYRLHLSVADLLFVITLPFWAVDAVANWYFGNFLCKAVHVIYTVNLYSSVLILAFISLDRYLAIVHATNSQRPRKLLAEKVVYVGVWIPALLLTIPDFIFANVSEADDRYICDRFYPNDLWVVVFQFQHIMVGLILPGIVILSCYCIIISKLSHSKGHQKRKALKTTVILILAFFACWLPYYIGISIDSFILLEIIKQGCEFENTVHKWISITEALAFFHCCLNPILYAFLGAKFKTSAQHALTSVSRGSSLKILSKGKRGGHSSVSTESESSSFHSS

Molecule: Nc1cccc2c1CN(C1CCC(=O)NC1=O)C2=O (stereo not shown) [lenalidomide, reference compound]
- tumor growth inhibition (MOLP-8 cells; MOLP8): alone = 35%
- efficacy in MOLP8 tumors (MOLP-8 cells): relatively resistant
- tumor growth inhibition [1]: Neither lenalidomide nor bortezomib alone inhibited tumor growth
- efficacy in inhibiting tumor growth (parental JJN-3 cells): ineffective in inhibiting tumor growth
- efficacy in RPMI-8226 model (RPMI-8226 cells; 50 mg/kg): marginal efficacy
- mean tumor growth inhibition (MM.1S cells; Day 25, compared to isotype control, MDX-1338 10 mg/kg/dose, lenalidomide 100 mg/kg): 70%
- tumor growth inhibition (MM.1S cells; MM.1S): REVLIMID ® = 70%
- efficacy in OPM-2 model (OPM-2 cells; lenalidomide 50 mg/kg/dose IP): minimal efficacy

Molecule: CC(C)C[C@H](NC(=O)[C@H](Cc1ccccc1)NC(=O)c1cnccn1)B(O)O [bortezomib, reference compound]
- efficacy in MOLP8 tumors (MOLP-8 cells): relatively resistant
- tumor growth inhibition [1]: Neither lenalidomide nor bortezomib alone inhibited tumor growth
- efficacy in inhibiting tumor growth (parental JJN-3 cells): marginal efficacy
- mean tumor growth inhibition (RPMI-8226 cells; Day 44, compared to isotype control, MDX-1338 10 mg/kg, lenalidomide 50 mg/kg, bortezomib 0.8 mg/kg): 70%
- median tumor growth inhibition (OPM-2 cells; Day 24, compared to vehicle control, MDX-1338 10 mg/kg/dose IP, bortezomib 0.8 mg/kg/dose IV): 75%

Molecule: c1cc(CN2CCCNCCNCCCNCC2)ccc1CN1CCCNCCNCCCNCC1 [AMD3100, Plerixafor]
- inhibition of Ramos cell proliferation (Ramos cells [2]): did not inhibit proliferation
- percent of cells Annexin V/PI double positive (Ramos cells [3]): 2.7%
- percent of cells positive for Annexin V only (Ramos cells [3]): 2.0%

Molecule: CC[C@@]1(O)C(=O)OCc2c1cc1n(c2=O)Cc2cc3ccccc3nc2-1 [Camptothecin]
- inhibition of Ramos cell proliferation (Ramos cells [2]; 10 μM): completely inhibited cell proliferation

- blockade of CXCL12 binding to CXCR4 (CXCR4 [5]): did not effectively block CXCL12 binding
- inhibition of CXCL12α-induced calcium flux (CXCR4 [6]): did not significantly inhibit
- inhibition of CXCL12α-induced migration (CXCR4 [7]): did not significantly inhibit migration
B1: E2: human anti-CXCR4 monoclonal antibody; VH SEQ ID NO: 28, VL SEQ ID NO: 32 (antibody, listed as Homo sapiens, V domains shown)
VH: EVQLVQSGGGLVQPGGSLRLSCAAAGFTFSSYSMNWVRQAPGKGLEWVSYISSRSRTIYYADSVKGRFTISRDNAKNSLYLQMNSLRDEDTAVYYCARDYGGQPPYHYYYGMDVWGQGTTVTVSS
VL: EIVLTQSPSSLSASVGDRVTITCRASQGISNWLAWYQQKPEKAPKSLIYAASSLQSGVPSRFSGSGSGTDFTLTISSLQPEDFATYYCQQYNSYPRTFGQGTKVEIK
- ability to compete with F9 for binding to CEM cells (CXCR4 [4]): able to compete with F9; also recorded: partial inhibition at high concentrations
- inhibition of capillary tube formation [8]: did not inhibit capillary tube formation
- inhibition of Ramos cell proliferation (3H-thymidine incorporation) (Ramos tumor cells): able to inhibit Ramos cell proliferation

- ability to compete with F9 for binding to CEM cells (CXCR4 [4]): able to compete with F9
- inhibition of CXCL12α-induced migration (CXCR4 [7]): did not significantly inhibit migration
B2: D1: human anti-CXCR4 monoclonal antibody; VH SEQ ID NO: 27, VL SEQ ID NO: 31 (antibody, listed as Homo sapiens, V domains shown)
VH: B1 VH with R56K, K76R, H107Y
VL: B1 VL with E1V, V3W, L4V, A25T, N31S, K45E, S46L

From patent US10428151B2, “Treatment of hematologic malignancies with an anti-CXCR4 antibody” (BRISTOL-MYERS SQUIBB COMPANY, priority 2011, dated 2019)
